This note sets out measurements from US7326707B2, “Bicyclic melanocortin-specific compounds” (Palatin Technologies Incorporated, priority 2001, dated 2008).

Test [1] addresses T1, MC4-R (HEK-293 cells expressing MC4-R) (Homo sapiens, UniProt P32245).
T1 construct: expressed in transfected cells; host or cells: HEK-293
As to the kind of experiment: cAMP assay for agonist/antagonist status, MC4-R. Format: cell-based. Particulars: cAMP assay as in Example 5. The procedure: (§1) The Ki (nM) of certain compounds of the invention were determined. Functional evaluation of compounds at melanocortin receptors was performed by measuring the accumulation of intracellular cAMP in HEK-293 cells expressing MC3-R, MC4-R or MC5-R, and in B-16 mouse melanoma cells (containing MC1-R). Cells, suspended in Earle's Balanced Salt Solution containing 10 mM HEPES, pH 7.5, 5 mM MgCl2, 1 mM glutamine, 0.1% albumin and 0.6 mM 3-isobutyl-1-methyl-xanthine, a phosphodiesterase inhibitor, were plated in 96 well plates at a density of 0.5×10^5 cells per well. Cells were incubated with the test compounds in the presence or absence of α-MSH for 1 hour at 37° C. cAMP levels were measured by EIA (Amersham) in the cell lysates. Data analysis and EC50 values were determined using nonlinear regression analysis with Prism Graph-Pad software.
(§2) The agonist/antagonist status with respect to MC1-R, MC4-R and MC5-R of certain compounds of the invention was determined. Antagonistic activity was determined by measuring the inhibition of α-MSH-induced cAMP levels following exposure to the compounds as in Example 4.
On the technique in general: Changes in cAMP serve as a functional read-out for many G protein-coupled receptors.

In test [2] the target is T2, MC1-R (B-16 mouse melanoma cells) (Mus musculus, UniProt Q01727).
T2 construct: B-16 mouse melanoma cells (containing MC1-R); endogenous in cells; host or cells: B-16 mouse melanoma cells
T2 sequence (Q01727 whole entry): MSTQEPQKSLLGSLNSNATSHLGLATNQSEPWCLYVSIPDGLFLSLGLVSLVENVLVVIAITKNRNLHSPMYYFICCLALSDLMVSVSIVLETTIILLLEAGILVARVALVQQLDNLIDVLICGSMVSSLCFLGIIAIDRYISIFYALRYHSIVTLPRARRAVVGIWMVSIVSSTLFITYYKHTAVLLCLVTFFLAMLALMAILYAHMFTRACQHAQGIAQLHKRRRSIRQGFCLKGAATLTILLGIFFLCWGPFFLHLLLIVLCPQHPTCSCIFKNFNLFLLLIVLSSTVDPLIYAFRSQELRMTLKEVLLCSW
The test can be described thus: cAMP assay for agonist/antagonist status, MC1-R. The format is cell-based. Particulars: cAMP assay as in Example 5. The procedure:
as §1, §2

The target of test [3] is T1, MC4-R (HEK-293 cells expressing MC4-R). The test can be described thus: Ki determination by the method of Example 4, MC4-R. The format is cell-based. The method, then:
as §1

The target in test [4] is T3, MC5-R (HEK-293 cells expressing MC5-R) (Homo sapiens, UniProt P33032).
T3 construct: expressed in transfected cells; host or cells: HEK-293
T3 sequence (P33032 whole entry): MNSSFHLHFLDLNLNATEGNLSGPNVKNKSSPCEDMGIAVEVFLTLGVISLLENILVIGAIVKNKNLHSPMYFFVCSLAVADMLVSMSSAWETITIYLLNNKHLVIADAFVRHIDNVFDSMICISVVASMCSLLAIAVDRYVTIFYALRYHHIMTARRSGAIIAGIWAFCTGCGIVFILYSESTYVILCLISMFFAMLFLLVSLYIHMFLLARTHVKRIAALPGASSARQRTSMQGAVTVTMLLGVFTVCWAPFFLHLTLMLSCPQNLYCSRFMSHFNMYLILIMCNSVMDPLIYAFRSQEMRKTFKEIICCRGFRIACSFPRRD
As to the kind of experiment: cAMP assay for agonist/antagonist status, MC5-R. The format is cell-based. Particulars: cAMP assay as in Example 5. The procedure:
as §1, §2

For test [5], the target named is T4, MC3-R (HEK-293 cells expressing MC3-R) (Homo sapiens, UniProt P41968).
T4 construct: expressed in transfected cells; host or cells: HEK-293
T4 sequence (P41968 whole entry): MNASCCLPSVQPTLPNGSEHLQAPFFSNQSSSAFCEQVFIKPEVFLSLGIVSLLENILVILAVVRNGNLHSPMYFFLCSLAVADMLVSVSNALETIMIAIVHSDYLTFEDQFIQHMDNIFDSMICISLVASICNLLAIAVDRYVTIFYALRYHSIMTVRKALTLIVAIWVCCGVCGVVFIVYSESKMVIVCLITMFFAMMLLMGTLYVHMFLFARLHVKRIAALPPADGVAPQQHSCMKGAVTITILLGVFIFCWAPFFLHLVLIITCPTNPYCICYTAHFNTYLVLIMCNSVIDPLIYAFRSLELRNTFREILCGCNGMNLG
As to the kind of experiment: Ki determination by the method of Example 4, MC3-R. The format is cell-based.

The target of test [6] is T5, hMC3-R (Homo sapiens, UniProt P41968).
T5 construct: expressed in transfected cells
T5 sequence (P41968 whole entry): as above
As to the kind of experiment: Competitive inhibition binding assay, 125I-NDP-α-MSH, MC3-R. Particulars: for Inhibition at 1 μM MC3-R: 1 μM compound, inhibition of 125I-NDP-α-MSH binding, mean of triplicates, results less than 0% reported as 0%. The method, then:
(§3) Incubation was for 90 minutes at room temperature, after which the assay mixture was filtered and the membranes washed three times with ice cold buffer. The filter was dried and counted in a gamma counter for remaining radioactivity bound to the membranes. […] Each assay was conducted in triplicate and the actual mean values are described.

For test [7], the target named is T6, hMC4-R (Homo sapiens, UniProt P32245).
T6 construct: expressed in transfected cells
T6 sequence (P32245 whole entry): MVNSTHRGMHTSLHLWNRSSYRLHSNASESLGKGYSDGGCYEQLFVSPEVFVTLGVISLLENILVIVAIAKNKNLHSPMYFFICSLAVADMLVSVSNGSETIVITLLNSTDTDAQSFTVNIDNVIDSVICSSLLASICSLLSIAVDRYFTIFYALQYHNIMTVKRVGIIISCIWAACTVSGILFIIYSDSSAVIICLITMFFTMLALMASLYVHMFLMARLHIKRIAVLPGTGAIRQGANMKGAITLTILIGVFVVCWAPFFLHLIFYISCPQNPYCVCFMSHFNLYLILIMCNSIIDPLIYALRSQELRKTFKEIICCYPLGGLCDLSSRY
As to the kind of experiment: Competitive inhibition binding assay, 125I-NDP-α-MSH, MC4-R. Particulars: for Inhibition at 1 μM MC4-R: 1 μM compound, inhibition of 125I-NDP-α-MSH binding, mean of triplicates, results less than 0% reported as 0%. The procedure:
as §3

Test [8] has as its target T7, hMC5-R (Homo sapiens, UniProt P33032).
T7 construct: expressed in transfected cells
The test can be described thus: Competitive inhibition binding assay, 125I-NDP-α-MSH, MC5-R. To be noted: for Inhibition at 1 μM MC5-R: 1 μM compound, inhibition of 125I-NDP-α-MSH binding, mean of triplicates, results less than 0% reported as 0%. The procedure: as §3

Test [9] concerns the target T2, MC1-R (B-16 mouse melanoma cells). As to the kind of experiment: Ki determination by the method of Example 4, MC1-R. The format is cell-based.
Test [10] concerns the target T3, MC5-R (HEK-293 cells expressing MC5-R). The test can be described thus: Ki determination by the method of Example 4, MC5-R. Format: cell-based.
For test [11], the target named is T8, B-16 mouse melanoma cells (containing MC1-R) (Mus musculus, UniProt Q01727).
T8 construct: B-16 mouse melanoma cells (containing MC1-R); endogenous in cells; host or cells: B-16 mouse melanoma cells
T8 sequence (Q01727 whole entry): as the sequence (Q01727 whole entry) above
As to the kind of experiment: Competitive inhibition binding assay, 125I-NDP-α-MSH, MC1-R. Particulars: for Inhibition at 1 μM MC1-R: 1 μM compound, inhibition of 125I-NDP-α-MSH binding, mean of triplicates, results less than 0% reported as 0%. The procedure: as §3

Test [12] deals with Male Sprague-Dawley rats. The test can be described thus: ICV food intake and body weight change. Format: in vivo, rat. To be noted: 1 nmol dose. The method, then:
Change in food intake and body weight was evaluated for selected compounds. Male Sprague-Dawley rats weighing ˜300 g at the beginning of the experiment were kept on a 12 hour on/off light cycle. Lights out was adjusted to 12:00 p.m. to allow for dosing just prior to the start of their dark period. Rats (8-12/group) were fed powdered chow and water ad libitum. For 1 week before treatment, 24-hour food intake and body weight change was recorded to assess a baseline for the group during vehicle treatment. The rats were dosed ICV with vehicle or selected compounds (1-3 nmol). The changes in body weight and food intake for the 24 hour period after dosing were determined. The changes in body weight and food intake for the 48 hour period, and in same cases for 72 hours as well, after dosing were also measured to determined reversal of changes in body weight and food intake effect back to baseline.

T1 sequence (P32245 whole entry): as the sequence (P32245 whole entry) above
T7 sequence (P33032 whole entry): as the sequence (P33032 whole entry) above

`N=C(N)NCCCC1C(=O)N2C(COc3ccc4ccccc4c3)CCC2N1C(=O)C(N)Cc1ccc(Cl)cc1Cl` (centres unmarked) [Compound B]: the “agonist/antagonist status as to MC4-R” value in test [1] was “agonist”. Moreover, the “agonist/antagonist status as to MC1-R” value in test [2] is recorded as “agonist”. The Ki (usually a dissociation constant, usually derived from enzyme kinetics or from competition with a known ligand) in [3] amounted to 11 nM; in test [5] it was 132 nM; in test [9], 144 nM; in test [10], 499 nM. Besides, in [4], the “agonist/antagonist status as to MC5-R” value is recorded as “agonist”. In addition, the inhibition (usually the share of the control response that was lost under treatment) at 1 µM in [6] was found to be 75%; in test [7], 98%; in test [8] it was 69%; in [11], 54%.
Turning to `N=C(N)NCCCC1C(=O)N2C(Cc3ccc4ccccc4c3)CCC2N1C(=O)C(N)Cc1ccc(Cl)cc1Cl` (centres unmarked) [Compound G], the “agonist/antagonist status as to MC4-R” value in test [1] was “agonist”. Moreover, the Ki is 19 nM in test [3], 121 nM in test [5], 63 nM in test [9] and 1050 nM in test [10]. Further, in [4], the “agonist/antagonist status as to MC5-R” value was “agonist”. The inhibition at 1 µM in test [6] came out at 63%; in test [7], 93%; in [8], 46%; in test [11] it was 76%.
Regarding `N=C(N)NCCCC1C(=O)N2C(COc3ccc4ccccc4c3)CCC2N1CC(N)Cc1ccc(Cl)cc1Cl` (centres unmarked) [Compound O], the Ki came to 29 nM in test [3], 505 nM in test [5], 848 nM in test [9] and 689 nM in [10]. Moreover, the inhibition at 1 µM was 28% in test [6], 91% in test [7], 49% in test [8] and 2% in [11].
Consider `NCCCCC1C(=O)N2C(COc3ccc4ccccc4c3)CCC2N1C(=O)C(Cc1ccc(Cl)cc1)NC(=O)C1Cc2ccccc2CN1` (centres unmarked) [Example 11], for which the Ki came out at 24 nM in [3], 787 nM in [5], 10 nM in test [9] and 398 nM in test [10]. In addition, the inhibition at 1 µM in test [6] was found to be 24%; in test [7] it was 94%; in test [8], 73%; in test [11] it was 95%.
On to `CCCCCCC(=O)NC(COCc1ccccc1)C(=O)NC(Cc1ccc(Cl)cc1)C(=O)N1C(CCCCN)C(=O)N2C(COc3ccc4ccccc4c3)CCC21` (centres unmarked) [Example 12], for which the Ki in test [3] came to 22 nM; in [5], 181 nM; in test [9] it was 13 nM; in [10] it was 116 nM. Moreover, the inhibition at 1 µM amounted to 75% in test [6], 98% in test [7], 95% in test [8] and 98% in test [11].
With `[2H]N[C@@H](Cc1cnc[nH]1)C(=O)N[C@@H](Cc1ccccc1)C(=O)N1C[C@H](OCc2ccccc2)C[C@H]1C(=O)NCCCCCN` [Example 26], the Inhibition (usually the share of the control response that was lost under treatment) at 1 μM MC3-R in test [6] is given as 0%. In [7], the “Inhibition at 1 μM MC4-R” value came out at 47%. In [8], the “Inhibition at 1 μM MC5-R” value turned out to be 14%. Further, the “Inhibition at 1 μM MC1-R” value in test [11] was determined as 34%.
For `[2H]N[C@@H](Cc1cnc[nH]1)C(=O)N[C@@H](Cc1ccccc1)C(=O)N1C[C@H](OCc2ccccc2)C[C@H]1C(=O)NCCCCCCN` [Example 27], the “Inhibition at 1 μM MC3-R” value in test [6] was 0%. In test [7], the “Inhibition at 1 μM MC4-R” value came to 12%. Moreover, the “Inhibition at 1 μM MC5-R” value in test [8] was determined as 17%. In addition, the “Inhibition at 1 μM MC1-R” value in test [11] came to 39%.
As to `N=C(N)NCCCC1C(=O)N2C(COc3ccc4ccccc4c3)CCC2N1C(=O)C(Cc1ccccc1Cl)NC(=O)C1Cc2ccccc2CN1` (centres unmarked) [Example 29], the Ki in test [3] was determined as 9 nM; in test [5] it was 756 nM; in test [9] it was 81 nM; in test [10] it was 301 nM. Also, the inhibition at 1 µM in [6] was 42%; in test [7], 98%; in test [8], 87%; in test [11] it was 77%.
Regarding `N=C(N)NCCCC1C(=O)N2C(COc3ccc4ccccc4c3)CCC2N1C(=O)C(Cc1ccccc1Cl)NC(=O)C(N)COCc1ccccc1` (centres unmarked) [Example 30], the Ki in test [3] amounted to 41 nM; in test [5], 733 nM; in test [9] it was 121 nM; in test [10] it was 151 nM. Further, the inhibition at 1 µM was 29% in [6], 94% in [7], 94% in [8] and 57% in [11].
Turning to `N=C(N)NCCCC1C(=O)N2C(COc3ccc4ccccc4c3)CCC2N1C(=O)C(Cc1ccccc1Cl)NC(=O)C1CC(OCc2ccccc2)CN1` (centres unmarked) [Example 31], in test [1], the “agonist/antagonist status as to MC4-R” value is reported as “agonist”. For the same molecule, the “agonist/antagonist status as to MC1-R” value in [2] is listed as “agonist”.
`[2H]N[C@@H](Cc1ccccc1)C(=O)N1C2CC[C@H](COc3ccccc3)N2C(=O)[C@@H]1CCCCN` (some centres unmarked) [Example 36]: the inhibition at 1 µM in test [6] was 4%; in test [7], 0%; in [8], 0%; in test [11] it was 1%.
As for `[2H]N[C@@H](Cc1ccccc1)C(=O)N1C2CC[C@H](COc3ccc4ccccc4c3)N2C(=O)[C@@H]1CCCCN` (some centres unmarked) [Example 38], the inhibition at 1 µM was determined as 13% in test [6], 0% in test [7], 1% in test [8] and 46% in test [11].
In the case of `[2H]N[C@@H](Cc1cnc[nH]1)C(=O)N[C@@H](Cc1ccccc1)C(=O)N1C2CC[C@H](COc3ccc4ccccc4c3)N2C(=O)[C@@H]1CCCCN` (some centres unmarked) [Example 42], the values for the inhibition at 1 µM in test [6], in test [7] and in [8] were 0%, 36% and 0%, respectively.
As to `N=C(N)NCCCC1C(=O)N2C(COc3ccc4ccccc4c3)CCC2N1C(=O)C(Cc1ccc(Cl)cc1Cl)NC(=O)C1CCC(c2ccccc2)N1` (centres unmarked) [Example 46], the Ki in [5] worked out at 312 nM; in test [9], 1040 nM. Besides, the “24 hour change in food intake” value in test [12] is -9.52 g. Besides, in test [12] (24 hour), the change in weight is -10.64 g.
